# Reference: US20260108521A1, “GSPT1 DEGRADERS, COMPOSITIONS COMPRISING THE DEGRADER, AND METHODS OF USING THE SAME” (BIOFRONT LTD, priority 2022, published 2026)
# Legend:
# [1] = target: T1, GSPT1 protein (Homo sapiens, UniProt P15170+Q96SW2); test: GSPT1 degradation assay (western blot) in HL-60 cells; assay type: cell-based; settings: GSPT1 protein level, 2h incubation, western blot normalized to beta-Actin; for inhibition at 0.1 µM: 0.1 μM compound; for inhibition at 1 µM: 1 μM compound
# T1 construct: endogenous in cells; host or cells: HL-60 cells
# Protocol: HL-60 cells (4×10^^6 cells/well) were seeded in 6-well culture plate (Costar, 3516) and treated with a variety of concentrations of test compound. After 2h incubation, cells were collected and lysed. The protein concentration was determined by BCA protein assay kit from Thermo (23227). The GSPT1 protein level was determined by western blots, using GSPT1 polyclonal antibody. Proteins were loaded into each well of the pre-casting gels and subjected to electrophoretic separation by SDS-PAGE. The protein resolved by SDS-PAGE were transferred to PVDF, blocked by 5% skim milk and probed with anti-GSPT1 antibody (Proteintech, 10763-1-AP) or anti-β-actin antibody (CST, 3700S), using following standard western blotting procedure. Blots intensities were quantified using ImageJ software and the intensity of GSPT1 bands were normalized to beta-Actin bands, respectively. The GSPT1 degradation results were then calculated. Reported compound C84971 (see WO2021126974A1 and WO2021126973A1) was used as a reference.
# [2] = system: HL-60 cells; test: Cell viability assay (CellTiter-Glo); assay type: cell-based; settings: Homo sapiens, 72 h incubation, 6-point serial dilution
# Protocol: HL-60 cells were seeded at a density of 7000 cells per well in 96-well culture plates (Corning 3903) with IMDM and treated with test compounds following a 6-point serial dilution. RPMI 1640 (0.1% DMSO) was used as control for each well. After 72 h incubation, cell viability was determined using the CellTiter-Glo assay kit (Promega, G9242) according to the manufacturer's instructions. The dose-response curves were determined and IC50 values were calculated using the GraphPad Prism software following a nonlinear regression method.
# T1 sequence (P15170 whole entry): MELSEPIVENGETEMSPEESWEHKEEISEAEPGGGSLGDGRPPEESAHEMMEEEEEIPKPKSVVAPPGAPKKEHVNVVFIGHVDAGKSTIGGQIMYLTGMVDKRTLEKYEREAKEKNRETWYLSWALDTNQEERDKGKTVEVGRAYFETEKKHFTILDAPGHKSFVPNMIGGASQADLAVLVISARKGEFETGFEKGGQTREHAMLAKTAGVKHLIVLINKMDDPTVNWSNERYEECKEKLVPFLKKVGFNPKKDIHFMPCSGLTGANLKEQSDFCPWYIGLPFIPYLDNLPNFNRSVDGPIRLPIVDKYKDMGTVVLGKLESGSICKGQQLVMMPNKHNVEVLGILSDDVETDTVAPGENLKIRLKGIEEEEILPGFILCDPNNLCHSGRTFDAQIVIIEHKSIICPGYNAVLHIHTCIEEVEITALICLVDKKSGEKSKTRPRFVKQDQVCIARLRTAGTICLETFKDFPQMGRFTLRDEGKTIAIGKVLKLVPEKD
# T1 sequence (Q96SW2 whole entry): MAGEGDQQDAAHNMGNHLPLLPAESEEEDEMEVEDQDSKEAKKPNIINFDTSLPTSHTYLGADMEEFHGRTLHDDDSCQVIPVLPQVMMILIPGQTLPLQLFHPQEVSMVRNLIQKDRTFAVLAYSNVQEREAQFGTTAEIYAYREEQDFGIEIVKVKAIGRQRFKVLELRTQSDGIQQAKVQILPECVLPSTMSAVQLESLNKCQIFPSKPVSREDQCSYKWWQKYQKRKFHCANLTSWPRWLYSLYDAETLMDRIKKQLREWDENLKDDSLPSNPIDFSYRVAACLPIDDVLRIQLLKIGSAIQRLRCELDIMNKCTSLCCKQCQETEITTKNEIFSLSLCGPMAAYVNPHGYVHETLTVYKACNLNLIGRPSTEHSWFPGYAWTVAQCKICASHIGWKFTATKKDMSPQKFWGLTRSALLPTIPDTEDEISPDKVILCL
# T1 sequence (Q16531 whole entry partner): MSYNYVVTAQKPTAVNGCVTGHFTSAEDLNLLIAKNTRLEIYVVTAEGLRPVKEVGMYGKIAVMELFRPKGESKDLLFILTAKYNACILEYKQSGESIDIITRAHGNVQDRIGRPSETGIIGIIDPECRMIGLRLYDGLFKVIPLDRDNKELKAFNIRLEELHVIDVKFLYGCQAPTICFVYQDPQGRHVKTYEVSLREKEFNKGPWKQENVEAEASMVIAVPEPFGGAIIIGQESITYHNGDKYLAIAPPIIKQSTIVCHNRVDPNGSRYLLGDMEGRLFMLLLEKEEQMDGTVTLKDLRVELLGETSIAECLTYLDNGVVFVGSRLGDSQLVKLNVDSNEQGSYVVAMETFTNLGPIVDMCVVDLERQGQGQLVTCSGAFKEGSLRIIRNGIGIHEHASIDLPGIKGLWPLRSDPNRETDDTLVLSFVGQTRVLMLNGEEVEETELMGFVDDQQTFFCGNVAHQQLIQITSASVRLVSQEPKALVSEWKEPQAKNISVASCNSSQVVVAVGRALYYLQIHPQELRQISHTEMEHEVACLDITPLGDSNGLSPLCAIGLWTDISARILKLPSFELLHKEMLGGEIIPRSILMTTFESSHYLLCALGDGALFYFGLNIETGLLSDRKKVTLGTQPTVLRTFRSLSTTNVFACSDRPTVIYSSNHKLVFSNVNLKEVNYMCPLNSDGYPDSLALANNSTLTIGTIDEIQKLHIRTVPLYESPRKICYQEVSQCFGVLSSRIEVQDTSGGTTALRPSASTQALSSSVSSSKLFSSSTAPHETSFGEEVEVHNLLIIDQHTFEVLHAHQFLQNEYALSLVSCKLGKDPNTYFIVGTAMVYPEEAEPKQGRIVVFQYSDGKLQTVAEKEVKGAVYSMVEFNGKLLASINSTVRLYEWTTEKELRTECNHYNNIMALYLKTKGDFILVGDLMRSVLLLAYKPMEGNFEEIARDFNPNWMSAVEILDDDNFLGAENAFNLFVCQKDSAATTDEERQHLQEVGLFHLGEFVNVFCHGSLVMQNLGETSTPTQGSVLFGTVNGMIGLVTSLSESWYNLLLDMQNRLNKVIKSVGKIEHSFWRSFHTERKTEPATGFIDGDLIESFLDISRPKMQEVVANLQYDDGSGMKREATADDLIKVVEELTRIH
SMILES,inhibition at 0.1 µM [1],inhibition at 1 µM [1],IC50 [2]
"O=C1CCC(N2C(=O)c3ccc(N4CCC(CN5CCCN(C6CCCCC6)C5=O)CC4)cc3C2=O)C(=O)N1 (stereo not drawn) [Compound 5, 5-(4-((3-cyclohexyl-2-oxotetrahydropyrimidin-1(2H)-yl)methyl)piperidin-1-yl)-2-(2,6-dioxopiperidin-3-yl) isoindoline-1,3-dione]",17%,7%,–
"O=C1CCC(N2C(=O)c3ccc(N4CC(CCN5CCCN(c6cccc(-c7cnccc7Cl)c6)C5=O)C4)cc3C2=O)C(=O)N1 (stereo not drawn) [Compound 8, 5-(3-(2-(3-(3-(4-chloropyridin-3-yl)phenyl)-2-oxotetrahydropyrimidin-1(2H)-yl)ethyl)azetidin-1-yl)-2-(2,6-dioxopiperidin-3-yl)isoindoline-1,3-dione]",70%,63%,196 nM
"O=C1CCC(c2ccc(N3CCC(CN4CCCN(c5ccccc5)C4=O)CC3)cc2)C(=O)N1 (stereo not drawn) [Compound 13, 3-(4-{4-[(2-oxo-3-phenyl-1,3-diazinan-1-yl)methyl]piperidin-1-yl}phenyl) piperidine-2,6-dione]",0%,0%,–
"O=C1CCC(N2C(=O)c3ccc(N4CCC(CN5CCN(Cc6ccc(F)cc6)C5=O)CC4)cc3C2=O)C(=O)N1 (stereo not drawn) [Compound 17, 2-(2,6-dioxopiperidin-3-yl)-5-(4-((3-(4-fluorobenzyl)-2-oxoimidazolidin-1-yl)methyl)piperidin-1-yl)isoindoline-1,3-dione]",36%,22%,–
"O=C1CCC(c2ccc(N3CCC(CCN4CCCN(c5ccccc5)C4=O)CC3)cc2)C(=O)N1 (stereo not drawn) [Compound 20, 3-(4-(4-(2-(2-oxo-3-phenyltetrahydropyrimidin-1(2H)-yl)ethyl)piperidin-1-yl)phenyl)piperidine-2,6-dione]",0%,0%,–
"O=C1CCC(N2C(=O)c3ccc(N4CC(CCN5CCCN(c6cccc(-c7ccn8ccnc8c7)c6)C5=O)C4)cc3C2=O)C(=O)N1 (stereo not drawn) [Compound 21, 2-(2,6-dioxopiperidin-3-yl)-5-(3-(2-(3-(3-(imidazo[1,2-a]pyridin-7-yl)phenyl)-2-oxotetrahydropyrimidin-1(2H)-yl)ethyl)azetidin-1-yl)isoindoline-1,3-dione]",35%,40%,–
"Cc1nc2ncc(-c3cccc(N4CCCN(CCC5CN(c6ccc7c(c6)C(=O)N(C6CCC(=O)NC6=O)C7=O)C5)C4=O)c3)cc2o1 (stereo not drawn) [Compound 24, 2-(2,6-dioxopiperidin-3-yl)-5-(3-(2-(3-(3-(2-methyloxazolo[4,5-b]pyridin-6-yl)phenyl)-2-oxotetrahydropyrimidin-1(2H)-yl)ethyl)azetidin-1-yl)isoindoline-1,3-dione]",26%,29%,–
"CNC(=O)c1ccc(-c2cccc(N3CCCN(CC4CCN(c5ccc6c(c5)C(=O)N(C5CCC(=O)NC5=O)C6=O)CC4)C3=O)c2)c(Cl)c1 (stereo not drawn) [Compound 31, 3-chloro-4-{3-[3-({1-[2-(2,6-dioxopiperidin-3-yl)-1,3-dioxoisoindol-5-yl]piperidin-4-yl}methyl)-2-oxo-1,3-diazinan-1-yl]phenyl}-N-methylbenzamide]",45%,55%,–
"CN(C)C(=O)c1ccc(-c2cccc(N3CCCN(CC4CCN(c5ccc6c(c5)C(=O)N(C5CCC(=O)NC5=O)C6=O)CC4)C3=O)c2)c(Cl)c1 (stereo not drawn) [Compound 32, 3-chloro-4-{3-[3-({1-[2-(2,6-dioxopiperidin-3-yl)-1,3-dioxoisoindol-5-yl]piperidin-4-yl}methyl)-2-oxo-1,3-diazinan-1-yl]phenyl}-N,N-dimethylbenzamide]",< 10%,< 10%,–
"CCn1ncc2ccc(-c3cccc(N4CCCN(CC5CCN(c6ccc7c(c6)C(=O)N(C6CCC(=O)NC6=O)C7=O)CC5)C4=O)c3)c(Cl)c21 (stereo not drawn) [Compound 34, 5-(4-((3-(3-(7-chloro-1-ethyl-1H-indazol-6-yl)phenyl)-2-oxotetrahydropyrimidin-1(2H)-yl)methyl)piperidin-1-yl)-2-(2,6-dioxopiperidin-3-yl)isoindoline-1,3-dione]",58%,53%,–
"CCc1c[nH]c2ccc(-c3cc(N4CCCN(CC5CCN(c6ccc7c(c6)C(=O)N(C6CCC(=O)NC6=O)C7=O)CC5)C4=O)ccn3)c(Cl)c12 (stereo not drawn) [Compound 35, 5-(4-((3-(2-(4-chloro-3-ethyl-1H-indol-5-yl)pyridin-4-yl)-2-oxotetrahydropyrimidin-1(2H)-yl)methyl)piperidin-1-yl)-2-(2,6-dioxopiperidin-3-yl)isoindoline-1,3-dione]",0%,0%,–

# Now from value to compound:
inhibition at 0.1 µM [1],inhibition at 1 µM [1],IC50 [2],SMILES
45%,51%,1460 nM,"O=C1CCC(N2C(=O)c3ccc(N4CCC(CN5CCCN(c6ccccc6)C5=O)CC4)cc3C2=O)C(=O)N1 (stereo not drawn) [Compound 1, 2-(2,6-dioxopiperidin-3-yl)-5-{4-[(2-oxo-3-phenyl-1,3-diazinan-1-yl)methyl]piperidin-1-yl}isoindole-1,3-dione]"
0%,0%,–,"O=C1CCC(N2C(=O)c3ccc(N4CCC(CN5CCN(c6ccccc6)C5=O)CC4)cc3C2=O)C(=O)N1 (stereo not drawn) [Compound 2, 2-(2,6-dioxopiperidin-3-yl)-5-(4-((2-oxo-3-phenylimidazolidin-1-yl)methyl)piperidin-1-yl)isoindoline-1,3-dione]"
30%,48%,234 nM,"O=C1CCC(N2C(=O)c3ccc(N4CCC(CN5CCCN(c6cccc(-c7cnccc7Cl)c6)C5=O)CC4)cc3C2=O)C(=O)N1 (stereo not drawn) [Compound 3, 5-(4-((3-(3-(4-chloropyridin-3-yl)phenyl)-2-oxotetrahydropyrimidin-1(2H)-yl)methyl)piperidin-1-yl)-2-(2,6-dioxopiperidin-3-yl)isoindoline-1,3-dione]"
0%,0%,–,"O=C1CCC(N2C(=O)c3ccc(N4CCC(CN5CCCN(c6ccccn6)C5=O)CC4)cc3C2=O)C(=O)N1 (stereo not drawn) [Compound 4, 2-(2,6-dioxopiperidin-3-yl)-5-(4-{[2-oxo-3-(pyridin-2-yl)-1,3-diazinan-1-yl]methyl}piperidin-1-yl)isoindole-1,3-dione]"
46%,52%,400 nM,"O=C1CCC(N2C(=O)c3ccc(N4CCC(CN5CCCCN(c6ccccc6)C5=O)CC4)cc3C2=O)C(=O)N1 (stereo not drawn) [Compound 6, 2-(2,6-dioxopiperidin-3-yl)-5-(4-((2-oxo-3-phenyl-1,3-diazepan-1-yl)methyl)piperidin-1-yl)isoindoline-1,3-dione]"
0%,10%,–,"CC(C)(C)N1CCCN(CC2CCN(c3ccc4c(c3)C(=O)N(C3CCC(=O)NC3=O)C4=O)CC2)C1=O (stereo not drawn) [Compound 7, 5-(4-((3-(tert-butyl)-2-oxotetrahydropyrimidin-1(2H)-yl)methyl)piperidin-1-yl)-2-(2,6-dioxopiperidin-3-yl)isoindoline-1,3-dione]"
0%,0%,–,"O=C1CCC(N2C(=O)c3ccc(N4CCC(CN5CCCN(c6cccc(Cl)c6)C5=O)CC4)cc3C2=O)C(=O)N1 (stereo not drawn) [Compound 14, 5-(4-((3-(3-chlorophenyl)-2-oxotetrahydropyrimidin-1(2H)-yl)methyl)piperidin-1-yl)-2-(2,6-dioxopiperidin-3-yl)isoindoline-1,3-dione]"
26%,32%,–,"O=C1CCC(N2C(=O)c3ccc(N4CCC(CN5CCCN(Cc6ccc(F)cc6)C5=O)CC4)cc3C2=O)C(=O)N1 (stereo not drawn) [Compound 16, 2-(2,6-dioxopiperidin-3-yl)-5-(4-((3-(4-fluorobenzyl)-2-oxotetrahydropyrimidin-1(2H)-yl)methyl)piperidin-1-yl)isoindoline-1,3-dione]"
32%,36%,–,"Cc1csc(N2CCCN(CC3CCN(c4ccc5c(c4)C(=O)N(C4CCC(=O)NC4=O)C5=O)CC3)C2=O)n1 (stereo not drawn) [Compound 18, 2-(2,6-dioxopiperidin-3-yl)-5-(4-{[3-(4-methyl-1,3-thiazol-2-yl)-2-oxo-1,3-diazinan-1-yl]methyl}piperidin-1-yl)isoindole-1,3-dione]"
37%,45%,–,"CCNc1ccc(-c2cccc(N3CCCN(CC4CCN(c5ccc6c(c5)C(=O)N(C5CCC(=O)NC5=O)C6=O)CC4)C3=O)c2)c(Cl)c1 (stereo not drawn) [Compound 30, 5-{4-[(3-{3-[2-chloro-4-(ethylamino)phenyl]phenyl}-2-oxo-1,3-diazinan-1-yl)methyl]piperidin-1-yl}-2-(2,6-dioxopiperidin-3-yl)isoindole-1,3-dione]"
< 10%,15%,–,"CS(=O)(=O)c1ccc(-c2cccc(N3CCCN(CC4CCN(c5ccc6c(c5)C(=O)N(C5CCC(=O)NC5=O)C6=O)CC4)C3=O)c2)c(Cl)c1 (stereo not drawn) [Compound 33, 5-[4-({3-[3-(2-chloro-4-methanesulfonylphenyl)phenyl]-2-oxo-1,3-diazinan-1-yl}methyl)piperidin-1-yl]-2-(2,6-dioxopiperidin-3-yl)isoindole-1,3-dione]"
